Results: ChEMBL document CHEMBL3991601, “The target landscape of clinical kinase drugs” (Science, 2017)
Calls of active or inactive are those of the source.

What was measured:
[1] = molecular target: T1, Ras-related protein Rab-27A (Homo sapiens, UniProt P51159)
T1 sequence (P51159 whole entry): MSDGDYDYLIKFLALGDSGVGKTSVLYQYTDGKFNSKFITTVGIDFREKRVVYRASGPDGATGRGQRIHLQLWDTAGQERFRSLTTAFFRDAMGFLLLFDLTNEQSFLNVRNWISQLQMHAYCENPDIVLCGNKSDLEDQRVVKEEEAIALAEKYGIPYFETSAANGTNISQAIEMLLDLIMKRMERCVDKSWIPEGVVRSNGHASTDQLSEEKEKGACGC

[2] = molecular target: Mitogen-activated protein kinase 3 (Homo sapiens, UniProt P27361)
Sequence of Mitogen-activated protein kinase 3 (P27361 whole entry): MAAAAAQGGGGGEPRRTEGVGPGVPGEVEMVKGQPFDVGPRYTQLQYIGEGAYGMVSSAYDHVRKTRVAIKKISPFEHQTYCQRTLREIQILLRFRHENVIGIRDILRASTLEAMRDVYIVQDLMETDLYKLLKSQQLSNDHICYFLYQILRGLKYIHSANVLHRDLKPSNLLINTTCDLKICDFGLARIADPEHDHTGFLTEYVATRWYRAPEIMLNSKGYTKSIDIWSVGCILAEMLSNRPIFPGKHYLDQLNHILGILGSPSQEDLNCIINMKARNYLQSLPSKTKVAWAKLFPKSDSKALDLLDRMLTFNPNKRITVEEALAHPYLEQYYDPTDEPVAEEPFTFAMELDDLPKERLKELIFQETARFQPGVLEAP

[3] = molecular target: Serine/threonine-protein kinase MRCK alpha (Homo sapiens, UniProt Q5VT25)
Sequence of Serine/threonine-protein kinase MRCK alpha (Q5VT25 whole entry): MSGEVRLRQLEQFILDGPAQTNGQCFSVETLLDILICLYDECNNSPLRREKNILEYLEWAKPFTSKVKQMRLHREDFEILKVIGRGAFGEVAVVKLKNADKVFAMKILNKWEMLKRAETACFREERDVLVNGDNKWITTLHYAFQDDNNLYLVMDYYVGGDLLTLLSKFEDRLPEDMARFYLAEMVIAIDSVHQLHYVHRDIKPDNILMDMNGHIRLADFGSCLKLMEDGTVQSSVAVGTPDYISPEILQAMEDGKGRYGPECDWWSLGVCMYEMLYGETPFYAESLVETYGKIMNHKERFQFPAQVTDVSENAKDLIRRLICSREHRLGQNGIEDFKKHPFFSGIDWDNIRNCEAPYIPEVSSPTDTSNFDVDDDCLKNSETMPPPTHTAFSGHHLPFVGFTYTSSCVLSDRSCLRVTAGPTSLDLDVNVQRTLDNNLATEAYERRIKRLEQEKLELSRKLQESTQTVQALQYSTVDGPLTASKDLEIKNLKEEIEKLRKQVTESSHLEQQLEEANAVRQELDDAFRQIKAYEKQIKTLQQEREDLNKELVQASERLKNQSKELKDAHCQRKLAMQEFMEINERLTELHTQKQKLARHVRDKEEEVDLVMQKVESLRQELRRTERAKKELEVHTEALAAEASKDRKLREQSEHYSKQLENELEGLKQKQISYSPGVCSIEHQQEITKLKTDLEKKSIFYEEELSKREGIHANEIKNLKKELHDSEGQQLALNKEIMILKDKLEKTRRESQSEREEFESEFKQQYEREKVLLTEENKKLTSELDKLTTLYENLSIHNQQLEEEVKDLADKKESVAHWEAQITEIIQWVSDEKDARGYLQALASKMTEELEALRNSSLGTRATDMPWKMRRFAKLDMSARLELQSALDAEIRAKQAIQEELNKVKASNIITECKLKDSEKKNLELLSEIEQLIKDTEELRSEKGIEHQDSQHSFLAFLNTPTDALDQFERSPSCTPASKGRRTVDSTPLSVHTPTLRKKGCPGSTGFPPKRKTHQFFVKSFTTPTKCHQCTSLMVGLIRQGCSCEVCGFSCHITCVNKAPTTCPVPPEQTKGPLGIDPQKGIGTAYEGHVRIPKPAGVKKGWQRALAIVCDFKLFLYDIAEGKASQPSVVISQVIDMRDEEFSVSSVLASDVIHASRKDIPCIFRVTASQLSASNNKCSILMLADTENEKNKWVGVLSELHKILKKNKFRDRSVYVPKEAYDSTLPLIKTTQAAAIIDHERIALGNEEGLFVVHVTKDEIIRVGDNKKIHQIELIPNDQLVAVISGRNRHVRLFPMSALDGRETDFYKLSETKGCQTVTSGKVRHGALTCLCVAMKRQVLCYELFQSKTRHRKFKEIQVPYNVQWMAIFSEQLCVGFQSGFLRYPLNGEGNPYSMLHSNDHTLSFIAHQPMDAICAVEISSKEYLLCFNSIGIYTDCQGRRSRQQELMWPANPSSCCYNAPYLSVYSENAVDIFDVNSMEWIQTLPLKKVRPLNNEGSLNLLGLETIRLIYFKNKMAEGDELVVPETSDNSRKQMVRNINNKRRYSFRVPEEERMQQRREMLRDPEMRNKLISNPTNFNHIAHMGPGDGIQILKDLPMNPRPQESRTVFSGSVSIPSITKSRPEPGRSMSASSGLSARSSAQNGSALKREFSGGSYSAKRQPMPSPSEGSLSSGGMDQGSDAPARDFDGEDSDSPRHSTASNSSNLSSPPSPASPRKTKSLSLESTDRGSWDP

[4] = molecular target: Mitotic checkpoint serine/threonine-protein kinase BUB1 (Homo sapiens, UniProt O43683)
[5] = molecular target: MAP kinase-activated protein kinase 2 (Homo sapiens, UniProt P49137)
Sequence of MAP kinase-activated protein kinase 2 (P49137 whole entry): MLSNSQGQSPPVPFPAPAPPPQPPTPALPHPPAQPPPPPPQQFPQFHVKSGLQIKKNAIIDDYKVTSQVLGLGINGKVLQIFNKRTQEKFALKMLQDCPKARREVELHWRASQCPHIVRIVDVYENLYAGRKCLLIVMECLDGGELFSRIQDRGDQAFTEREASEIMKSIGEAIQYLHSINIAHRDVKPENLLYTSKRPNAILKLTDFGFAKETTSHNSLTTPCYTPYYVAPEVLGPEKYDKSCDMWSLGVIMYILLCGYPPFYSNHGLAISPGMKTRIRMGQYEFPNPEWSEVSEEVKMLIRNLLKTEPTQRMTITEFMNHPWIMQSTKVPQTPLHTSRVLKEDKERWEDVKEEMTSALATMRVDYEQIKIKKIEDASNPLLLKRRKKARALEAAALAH

[6] = molecular target: Insulin-like growth factor 1 receptor (Homo sapiens, UniProt P08069)
Sequence of Insulin-like growth factor 1 receptor (P08069 31-736 limits assumed): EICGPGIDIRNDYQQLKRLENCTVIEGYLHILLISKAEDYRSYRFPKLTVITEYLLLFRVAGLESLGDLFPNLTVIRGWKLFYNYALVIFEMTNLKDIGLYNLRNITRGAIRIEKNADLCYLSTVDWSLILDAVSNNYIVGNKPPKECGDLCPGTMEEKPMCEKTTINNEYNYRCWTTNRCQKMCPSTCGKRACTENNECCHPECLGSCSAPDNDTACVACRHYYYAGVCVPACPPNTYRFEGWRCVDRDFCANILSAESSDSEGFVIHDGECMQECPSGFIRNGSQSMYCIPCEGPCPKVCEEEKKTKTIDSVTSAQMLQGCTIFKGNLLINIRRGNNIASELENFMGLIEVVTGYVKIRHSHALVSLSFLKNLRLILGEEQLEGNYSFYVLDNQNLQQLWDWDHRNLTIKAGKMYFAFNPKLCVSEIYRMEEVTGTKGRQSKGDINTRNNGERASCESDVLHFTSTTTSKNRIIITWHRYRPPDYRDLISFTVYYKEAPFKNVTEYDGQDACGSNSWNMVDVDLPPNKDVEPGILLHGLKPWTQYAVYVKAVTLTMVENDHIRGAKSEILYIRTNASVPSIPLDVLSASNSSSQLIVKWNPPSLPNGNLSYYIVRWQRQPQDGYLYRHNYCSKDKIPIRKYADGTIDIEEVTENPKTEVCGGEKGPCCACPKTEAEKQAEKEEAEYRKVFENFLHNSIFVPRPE
Sequence of Insulin-like growth factor 1 receptor (P08069 741-1367 limits assumed): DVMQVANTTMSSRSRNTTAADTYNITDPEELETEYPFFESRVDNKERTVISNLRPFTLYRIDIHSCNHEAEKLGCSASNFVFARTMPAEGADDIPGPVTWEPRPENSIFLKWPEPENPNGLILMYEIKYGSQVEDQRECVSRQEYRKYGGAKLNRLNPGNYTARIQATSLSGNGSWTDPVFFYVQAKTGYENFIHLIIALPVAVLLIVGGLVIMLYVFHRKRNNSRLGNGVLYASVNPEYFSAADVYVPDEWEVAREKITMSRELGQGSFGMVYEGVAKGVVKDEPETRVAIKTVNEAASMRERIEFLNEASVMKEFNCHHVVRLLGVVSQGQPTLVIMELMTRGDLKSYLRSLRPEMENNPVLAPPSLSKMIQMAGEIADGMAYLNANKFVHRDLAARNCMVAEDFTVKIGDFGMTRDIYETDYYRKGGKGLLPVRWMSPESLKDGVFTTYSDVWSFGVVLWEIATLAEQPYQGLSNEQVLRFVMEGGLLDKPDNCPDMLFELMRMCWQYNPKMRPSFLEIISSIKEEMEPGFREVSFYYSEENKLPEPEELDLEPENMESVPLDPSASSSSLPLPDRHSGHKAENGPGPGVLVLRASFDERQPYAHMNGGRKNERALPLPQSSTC

[7] = molecular target: Cyclin-dependent kinase 2 (Homo sapiens, UniProt P24941)
[8] = molecular target: Membrane-associated progesterone receptor component 1 (Homo sapiens, UniProt O00264)
Sequence of Membrane-associated progesterone receptor component 1 (O00264 whole entry): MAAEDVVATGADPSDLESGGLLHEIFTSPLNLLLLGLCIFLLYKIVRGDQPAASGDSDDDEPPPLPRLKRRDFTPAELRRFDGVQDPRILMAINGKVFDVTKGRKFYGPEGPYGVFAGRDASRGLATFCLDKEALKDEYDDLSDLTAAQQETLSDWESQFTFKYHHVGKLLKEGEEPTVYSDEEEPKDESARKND

[9] = molecular target: Tyrosine-protein kinase Lck (Homo sapiens, UniProt P06239)
Sequence of Tyrosine-protein kinase Lck (P06239 whole entry): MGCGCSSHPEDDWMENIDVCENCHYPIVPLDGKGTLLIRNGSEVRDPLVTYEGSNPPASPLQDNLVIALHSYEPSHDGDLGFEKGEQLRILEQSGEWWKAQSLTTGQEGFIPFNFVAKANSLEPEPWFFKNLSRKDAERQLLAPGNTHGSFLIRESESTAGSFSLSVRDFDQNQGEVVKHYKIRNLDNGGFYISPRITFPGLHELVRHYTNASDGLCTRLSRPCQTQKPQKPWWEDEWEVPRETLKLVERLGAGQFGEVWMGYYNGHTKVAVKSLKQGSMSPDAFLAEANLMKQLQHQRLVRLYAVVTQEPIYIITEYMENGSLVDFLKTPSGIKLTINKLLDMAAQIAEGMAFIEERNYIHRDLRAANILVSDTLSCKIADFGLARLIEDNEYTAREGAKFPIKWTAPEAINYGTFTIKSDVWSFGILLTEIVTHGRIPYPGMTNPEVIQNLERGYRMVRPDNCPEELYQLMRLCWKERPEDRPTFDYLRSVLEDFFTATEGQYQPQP

[10] = molecular target: T2, Glycogen phosphorylase, brain form (Homo sapiens, UniProt P11216)
T2 sequence (P11216 whole entry): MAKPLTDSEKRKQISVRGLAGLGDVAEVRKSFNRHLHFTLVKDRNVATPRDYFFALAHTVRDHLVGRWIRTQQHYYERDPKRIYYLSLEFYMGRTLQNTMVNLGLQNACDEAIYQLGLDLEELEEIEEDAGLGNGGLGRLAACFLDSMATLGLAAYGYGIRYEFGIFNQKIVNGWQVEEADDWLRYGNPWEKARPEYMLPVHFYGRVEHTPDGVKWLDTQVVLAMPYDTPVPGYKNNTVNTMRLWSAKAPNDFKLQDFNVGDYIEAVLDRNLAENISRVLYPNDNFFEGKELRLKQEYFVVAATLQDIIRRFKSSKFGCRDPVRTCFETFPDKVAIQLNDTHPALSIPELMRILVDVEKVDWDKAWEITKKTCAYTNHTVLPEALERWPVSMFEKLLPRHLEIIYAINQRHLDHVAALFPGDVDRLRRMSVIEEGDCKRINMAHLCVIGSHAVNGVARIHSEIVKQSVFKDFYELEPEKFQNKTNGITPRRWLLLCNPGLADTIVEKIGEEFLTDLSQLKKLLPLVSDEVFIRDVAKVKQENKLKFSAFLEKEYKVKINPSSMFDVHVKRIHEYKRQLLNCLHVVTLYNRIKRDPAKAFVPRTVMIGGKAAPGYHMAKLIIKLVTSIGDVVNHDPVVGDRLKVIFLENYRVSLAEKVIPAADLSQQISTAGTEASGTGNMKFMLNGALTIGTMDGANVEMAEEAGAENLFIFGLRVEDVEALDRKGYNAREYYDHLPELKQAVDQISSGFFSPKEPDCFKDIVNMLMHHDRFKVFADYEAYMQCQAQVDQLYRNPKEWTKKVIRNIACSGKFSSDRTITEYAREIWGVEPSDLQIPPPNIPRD

[11] = molecular target: Protein kinase C delta type (Homo sapiens, UniProt Q05655)
[12] = molecular target: T3, Serine/threonine-protein kinase ICK (Homo sapiens, UniProt Q9UPZ9)
T3 sequence (Q9UPZ9 whole entry): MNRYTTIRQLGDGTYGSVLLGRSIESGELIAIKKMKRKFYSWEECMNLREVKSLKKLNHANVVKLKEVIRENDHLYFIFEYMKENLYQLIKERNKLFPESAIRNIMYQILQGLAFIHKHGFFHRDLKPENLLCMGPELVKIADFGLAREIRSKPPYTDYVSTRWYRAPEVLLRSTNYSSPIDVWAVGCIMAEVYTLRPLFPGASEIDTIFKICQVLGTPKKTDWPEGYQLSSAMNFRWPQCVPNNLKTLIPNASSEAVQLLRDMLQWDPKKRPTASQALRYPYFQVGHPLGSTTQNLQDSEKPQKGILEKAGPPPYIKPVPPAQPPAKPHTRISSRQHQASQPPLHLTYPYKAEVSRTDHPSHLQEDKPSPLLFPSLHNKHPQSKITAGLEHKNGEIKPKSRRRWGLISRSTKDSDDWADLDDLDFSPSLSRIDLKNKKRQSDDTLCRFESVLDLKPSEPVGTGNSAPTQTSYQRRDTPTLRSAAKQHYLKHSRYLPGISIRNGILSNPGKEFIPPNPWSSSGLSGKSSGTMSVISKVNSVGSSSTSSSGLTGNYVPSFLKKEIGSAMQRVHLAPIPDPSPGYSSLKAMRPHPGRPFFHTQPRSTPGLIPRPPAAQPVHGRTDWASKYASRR
Also: in the data inactive means no Kd found up to 30 µM.

Compound | Kd [1] | Kd [2] | Kd [3] | Kd [4] | Kd [5] | Kd [6] | Kd [7] | Kd [8] | Kd [9] | Kd [10] | Kd [11] | Kd [12]
CN(C[C@@H]1COCCO1)S(=O)(=O)Nc1ccc2ccc3ncc(-c4cnn(C)c4)cc3c(=O)c2c1 [MK-2461] | > 30 µM (inactive) | > 30 µM (inactive) | > 30 µM (inactive) | > 30 µM (inactive) | > 30 µM (inactive) | > 30 µM (inactive) | > 30 µM (inactive) | > 30 µM (inactive) | > 30 µM (inactive) | > 30 µM (inactive) | > 30 µM (inactive) | –
CC(=O)c1cnc2ccc(-c3cc(Cl)c(O)c(Cl)c3)nc2c1N[C@H]1CC[C@H](CN(C)C)CC1 | > 30 µM (inactive) | > 30 µM (inactive) | > 30 µM (inactive) | > 30 µM (inactive) | – | > 30 µM (inactive) | 0.091 µM (active) | – | 0.073 µM (active) | > 30 µM (inactive) | – | > 30 µM (inactive)
CC(C)(C)c1nc(-c2cccc(NS(=O)(=O)c3c(F)cccc3F)c2F)c(-c2ccnc(N)n2)s1 [DABRAFENIB] | > 30 µM (inactive) | > 30 µM (inactive) | > 30 µM (inactive) | > 30 µM (inactive) | – | – | 0.019 µM (active) | > 30 µM (inactive) | 0.783 µM (active) | > 30 µM (inactive) | > 30 µM (inactive) | > 30 µM (inactive)
CCn1cc(-c2ccnc3[nH]c(-c4cccc(CN(C)C)c4)cc23)c(-c2ccc(NC(=O)N(C)C)cc2)n1 [GSK-1070916] | > 30 µM (inactive) | > 30 µM (inactive) | > 30 µM (inactive) | > 30 µM (inactive) | – | > 30 µM (inactive) | > 30 µM (inactive) | – | > 30 µM (inactive) | > 30 µM (inactive) | > 30 µM (inactive) | > 30 µM (inactive)
N#CC1(c2ccc(NC(=O)c3cccnc3NCc3ccncc3)cc2)CCCC1 [RIVOCERANIB] | > 30 µM (inactive) | > 30 µM (inactive) | > 30 µM (inactive) | > 30 µM (inactive) | > 30 µM (inactive) | > 30 µM (inactive) | > 30 µM (inactive) | – | > 30 µM (inactive) | > 30 µM (inactive) | > 30 µM (inactive) | > 30 µM (inactive)
CCNC(=O)C#Cc1ccc2c(c1)NC(=O)/C2=C(\Nc1ccc(CN(C)C)cc1)c1ccccc1 | > 30 µM (inactive) | > 30 µM (inactive) | > 30 µM (inactive) | > 30 µM (inactive) | > 30 µM (inactive) | > 30 µM (inactive) | > 30 µM (inactive) | > 30 µM (inactive) | 0.115 µM (active) | > 30 µM (inactive) | > 30 µM (inactive) | –
CC(C)c1cc(CNc2nc(Nc3cc(C4CC4)[nH]n3)cc(N3CCN(C)CC3)n2)on1 [XL-228] | > 30 µM (inactive) | > 30 µM (inactive) | > 30 µM (inactive) | > 30 µM (inactive) | > 30 µM (inactive) | – | > 30 µM (inactive) | – | 0.166 µM (active) | > 30 µM (inactive) | > 30 µM (inactive) | > 30 µM (inactive)
CO[C@H]1C[C@@H]2CC[C@@H](C)[C@@](O)(O2)C(=O)C(=O)N2CCCC[C@H]2C(=O)O[C@H]([C@H](C)C[C@@H]2CC[C@@H](O)[C@H](OC)C2)CC(=O)[C@H](C)/C=C(\C)[C@@H](O)[C@@H](OC)C(=O)[C@H](C)C[C@H](C)/C=C/C=C/C=C/1C [SIROLIMUS] | > 30 µM (inactive) | > 30 µM (inactive) | > 30 µM (inactive) | > 30 µM (inactive) | > 30 µM (inactive) | > 30 µM (inactive) | > 30 µM (inactive) | – | > 30 µM (inactive) | > 30 µM (inactive) | > 30 µM (inactive) | > 30 µM (inactive)
O=C(Nc1cc(C(F)(F)F)cc(C(F)(F)F)c1)c1cc(Cl)ccc1O [IMD-0354] | > 30 µM (inactive) | > 30 µM (inactive) | – | > 30 µM (inactive) | > 30 µM (inactive) | > 30 µM (inactive) | > 30 µM (inactive) | > 30 µM (inactive) | > 30 µM (inactive) | > 30 µM (inactive) | – | > 30 µM (inactive)
COc1cc2ncnc(Oc3cccc(NC(=O)Nc4cc(C(C)(C)C(F)(F)F)on4)c3)c2cc1OC [CEP-32496] | > 30 µM (inactive) | > 30 µM (inactive) | > 30 µM (inactive) | > 30 µM (inactive) | 0.49 µM (active) | > 30 µM (inactive) | > 30 µM (inactive) | > 30 µM (inactive) | – | > 30 µM (inactive) | > 30 µM (inactive) | > 30 µM (inactive)
CNC(=O)c1nn(C)c2c1C(C)(C)Cc1cnc(Nc3ccc(N4CCN(C)CC4)cc3)nc1-2 [MILCICLIB] | > 30 µM (inactive) | > 30 µM (inactive) | > 30 µM (inactive) | – | > 30 µM (inactive) | > 30 µM (inactive) | 0.739 µM (active) | > 30 µM (inactive) | – | > 30 µM (inactive) | > 30 µM (inactive) | 0.863 µM (active)
Nc1ncnc2c1c(-c1cccc(OCc3ccccc3)c1)cn2[C@H]1C[C@@H](CN2CCC2)C1 [AEW-541] | > 30 µM (inactive) | > 30 µM (inactive) | > 30 µM (inactive) | > 30 µM (inactive) | > 30 µM (inactive) | – | > 30 µM (inactive) | > 30 µM (inactive) | > 30 µM (inactive) | > 30 µM (inactive) | > 30 µM (inactive) | > 30 µM (inactive)
COc1ccc(S(=O)(=O)N(C(C)=O)c2ccccc2/C=C/c2cc[n+]([O-])cc2)cc1 [HMN-214] | > 30 µM (inactive) | > 30 µM (inactive) | > 30 µM (inactive) | > 30 µM (inactive) | > 30 µM (inactive) | > 30 µM (inactive) | > 30 µM (inactive) | – | > 30 µM (inactive) | > 30 µM (inactive) | > 30 µM (inactive) | > 30 µM (inactive)
CCOc1cc2ncc(C#N)c(Nc3ccc(F)c(Cl)c3)c2cc1NC(=O)/C=C/CN(C)C [PELITINIB] | > 30 µM (inactive) | > 30 µM (inactive) | > 30 µM (inactive) | > 30 µM (inactive) | > 30 µM (inactive) | > 30 µM (inactive) | > 30 µM (inactive) | > 30 µM (inactive) | – | > 30 µM (inactive) | – | > 30 µM (inactive)
COc1c(OCCCN2CCOCC2)ccc2c1N=C(NC(=O)c1cnc(N)nc1)N1CCN=C21 [COPANLISIB] | 4.49 µM | > 30 µM (inactive) | > 30 µM (inactive) | > 30 µM (inactive) | > 30 µM (inactive) | > 30 µM (inactive) | > 30 µM (inactive) | – | > 30 µM (inactive) | > 30 µM (inactive) | > 30 µM (inactive) | > 30 µM (inactive)
